The target in experiment [1] is T1, human H3 receptor (Homo sapiens, UniProt Q9Y5N1).
T1 construct: expressed in transfected cells
Briefly: In vitro H3 binding assay (3H-N-α-methyl-histamine competition binding). The following applies: membranes of CHO-K1 cells expressing human H3 receptor; 2 nM 3H-NαMH; read-out: hH3 binding IC50. In short, it runs like this:
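Membranes from CHO-K1 cells stably expressing human H3 (5 μg/well) incubated 1 h at room temperature with compound and 2 nM ³H-NαMH in 50 mM Tris-HCl pH 7.4, 5 mM MgCl2; non-specific binding defined with 1 μM RαMH. Bound radioactivity measured by filtration and scintillation; IC50 from seven-point curves by variable-slope sigmoidal regression.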

Experiment [2] deals with T1, human H3 receptor. Briefly: In vitro H3 functional assay (cAMP response element driven luciferase reporter). The experiment is classed as cell-based. The following applies: CHO(dhfr+)-cre-luc cells expressing human H3 receptor; RαMH 10 nM, forskolin 1 μM; read-out: hH3 functional IC50. As to the method: The functional activity of compounds at the H3 receptor was determined by measuring changes in the level of intracellular cAMP using a cAMP response element driven luciferase reporter assay. The changes in luciferase expression were monitored by a luminescence plate reader, Analyst HT (MDS Analytical). Increases in intracellular cAMP were readily detected upon activation of protein kinase A by forskolin (Sigma) and suppression of this response observed with the application of the H3 receptor agonist RαMH (Sigma).
CHO(dhfr^+)-cre-luc cells stably expressing human H3 receptor were routinely grown as monolayers in Minimal Essential Medium α (MEMα) (Invitrogen) supplemented with 10% dialysed FBS (Hyclone), in 5% CO2 at 37° C. 48 hours prior to assay, cells were seeded in clear-base white walled 384-well plates (Corning) at a density of 5000 cells/well. On the day of assay, growth media was removed and replaced with […] of assay buffer (MEMα, 5 mg/ml fatty acid free BSA (Sigma)) per well. Cells were then incubated for 30 minutes at 37° C., 5% CO2. Compound was serially diluted in DMSO before being diluted 1:10 with assay buffer. 2.5 of compound diluted in assay buffer was added and cells incubated for 5 minutes at 37° C., 5% CO2. 2.5 μl of each reagent was then added in the following order: RαMH (10 nM), isobutylmethylxanthine (1-methyl-3-(2-methylpropyl)-7H-purine-2,6-dione; IBMX) (500 μM) (Sigma) and forskolin (1 μM). Cells were then incubated for 90 minutes at 37° C., 5% CO2, followed by 30 minutes at room temperature. At the end of incubation 25 μl of Steadylite reagent (Perkin Elmer) was added, plates were sealed and placed on a shaker for 5 minutes. The level of light output to determine the level of luciferase expression was then measured.
IC50 values for compounds were determined from ten point half log scale dose-response studies and represent the concentration of compound required to […] 50% inhibition of forskolin stimulated cells in the presence of RαMH alone. Curves were generated using the average of duplicate wells for each data point and analyzed using nonlinear regression of four parameter dose response.
On the technique in general: Reporter assays use an easily measured gene product as a stand-in for the process of interest.

One may read the IC50 as the concentration that inhibits the measured activity by half.

T1 sequence (Q9Y5N1 whole entry): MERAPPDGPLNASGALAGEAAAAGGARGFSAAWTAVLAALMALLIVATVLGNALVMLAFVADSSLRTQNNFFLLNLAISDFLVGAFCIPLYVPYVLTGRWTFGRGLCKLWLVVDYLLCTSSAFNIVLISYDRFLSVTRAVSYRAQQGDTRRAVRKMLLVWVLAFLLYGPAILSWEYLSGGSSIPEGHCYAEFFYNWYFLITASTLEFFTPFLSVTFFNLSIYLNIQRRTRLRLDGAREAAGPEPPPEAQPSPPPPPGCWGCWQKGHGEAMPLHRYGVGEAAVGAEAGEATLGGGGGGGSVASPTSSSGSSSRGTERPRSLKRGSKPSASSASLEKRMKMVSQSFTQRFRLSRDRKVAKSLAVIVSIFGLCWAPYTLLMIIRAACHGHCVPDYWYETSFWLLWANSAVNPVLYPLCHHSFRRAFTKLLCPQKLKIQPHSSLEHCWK

With `Cn1nc(CNC(=O)c2ccc3c(c2)CCN(C2CCC2)CC3)c2ccccc21` [Example 73, 3-Cyclobutyl-N-((1-methyl-1H-indazol-3-yl)methyl)-2,3,4,5-tetrahydro-1H-benzo[d]azepine-7-carboxamide], the IC50 on human H3 receptor [1] came to 12 nM; at human H3 receptor [2], 1 nM.

Take `O=C(NCc1ccc2[nH]ccc2c1)c1ccc2c(c1)CCN(C1CCC1)CC2` [Example 74, N-((1H-Indol-5-yl)methyl)-3-cyclobutyl-2,3,4,5-tetrahydro-1H-benzo[d]azepine-7-carboxamide]: the concentration for half-maximal inhibition (IC50) came to 3 nM on human H3 receptor [1] and 1 nM on human H3 receptor [2].

Take `Cn1ccc2c(CNC(=O)c3ccc4c(c3)CCN(C3CCC3)CC4)cccc21` [Example 77, 3-Cyclobutyl-N-((1-methyl-1H-indol-4-yl)methyl)-2,3,4,5-tetrahydro-1H-benzo[d]azepine-7-carboxamide]: the values for the IC50 on human H3 receptor [1] and at human H3 receptor [2] were 3 nM and 1 nM, respectively.

For the compound `O=C(NCc1nc2ccccc2s1)c1ccc2c(c1)CCN(C1CCC1)CC2` [Example 78, N-(Benzo[d]thiazol-2-ylmethyl)-3-cyclobutyl-2,3,4,5-tetrahydro-1H-benzo[d]azepine-7-carboxamide], the IC50 was 4 nM at human H3 receptor [1] and 2 nM at human H3 receptor [2].

As for `Cn1c(CNC(=O)c2ccc3c(c2)CCN(C2CCC2)CC3)nc2ccccc21` [Example 79, 3-Cyclobutyl-N-((1-methyl-1H-benzo[d]imidazol-2-yl)methyl)-2,3,4,5-tetrahydro-1H-benzo[d]azepine-7-carboxamide], the values for the half-inhibitory concentration (IC50) at human H3 receptor [1] and at human H3 receptor [2] were 6 nM and 3 nM, respectively.

In the case of `O=C(NCc1ccc2nccn2c1)c1ccc2c(c1)CCN(C1CCC1)CC2` [Example 81, 3-Cyclobutyl-N-(imidazo[1,2-a]pyridin-6-ylmethyl)-2,3,4,5-tetrahydro-1H-benzo[d]azepine-7-carboxamide], the results for the IC50 on human H3 receptor [1] and on human H3 receptor [2] were 0.4 nM and 0.8 nM, respectively.

Regarding `O=C(NCc1nccs1)c1ccc2c(c1)CCN(C1CCC1)CC2` [Example 86, 3-Cyclobutyl-N-(thiazol-2-ylmethyl)-2,3,4,5-tetrahydro-1H-benzo[d]azepine-7-carboxamide], the IC50 on human H3 receptor [1] is 3 nM; on human H3 receptor [2] it was 1 nM.

`O=C(NCc1ccsc1)c1ccc2c(c1)CCN(C1CCC1)CC2` [Example 88, 3-Cyclobutyl-N-(thiophen-3-ylmethyl)-2,3,4,5-tetrahydro-1H-benzo[d]azepine-7-carboxamide]: the IC50 on human H3 receptor [1] was found to be 5 nM; at human H3 receptor [2], 2 nM.

`O=C(NCc1ccc(C(F)(F)F)o1)c1ccc2c(c1)CCN(C1CCC1)CC2` [Example 92, 3-cyclobutyl-N-((5-(trifluoromethyl)furan-2-yl)methyl)-2,3,4,5-tetrahydro-1H-benzo[d]azepine-7-carboxamide]: the results for the concentration for half-maximal inhibition (IC50) on human H3 receptor [1] and at human H3 receptor [2] were 4 nM and 1 nM, respectively.

`Cc1c(CNC(=O)c2ccc3c(c2)CCN(C2CCC2)CC3)cnn1C` [Example 97, 3-Cyclobutyl-N-((1,5-dimethyl-1H-pyrazol-4-yl)methyl)-2,3,4,5-tetrahydro-1H-benzo[d]azepine-7-carboxamide]: the figures for the 50% inhibitory concentration (IC50) on human H3 receptor [1] and on human H3 receptor [2] were 9 nM and 2 nM, respectively.

Regarding `CCn1nccc1CNC(=O)c1ccc2c(c1)CCN(C1CCC1)CC2` [Example 100, 3-cyclobutyl-N-((1-ethyl-1H-pyrazol-5-yl)methyl)-2,3,4,5-tetrahydro-1H-benzo[d]azepine-7-carboxamide], the IC50 on human H3 receptor [1] is 2 nM; on human H3 receptor [2] it was 0.5 nM.

As for `Cn1ccc(CNC(=O)c2ccc3c(c2)CCN(C2CCC2)CC3)n1` [Example 103, 3-Cyclobutyl-N-((1-methyl-1H-pyrazol-3-yl)methyl)-2,3,4,5-tetrahydro-1H-benzo[d]azepine-7-carboxamide], the IC50 at human H3 receptor [1] was 11 nM; at human H3 receptor [2] it was 1 nM.

For `Cn1nc(CNC(=O)c2ccc3c(c2)CCN(C2CCC2)CC3)cc1-c1ccccc1` [Example 108, 3-Cyclobutyl-N-((1-methyl-5-phenyl-1H-pyrazol-3-yl)methyl)-2,3,4,5-tetrahydro-1H-benzo[d]azepine-7-carboxamide], the values for the IC50 at human H3 receptor [1] and on human H3 receptor [2] were 1 nM and 4 nM, respectively.

In the case of `Cn1cccc1CNC(=O)c1ccc2c(c1)CCN(C1CCC1)CC2` [Example 111, 3-Cyclobutyl-N-((1-methyl-1H-pyrrol-2-yl)methyl)-2,3,4,5-tetrahydro-1H-benzo[d]azepine-7-carboxamide], the IC50 on human H3 receptor [1] and at human H3 receptor [2] was 7 nM each time.

As to `Cn1cncc1CNC(=O)c1ccc2c(c1)CCN(C1CCC1)CC2` [Example 114, 3-Cyclobutyl-N-((1-methyl-1H-imidazol-5-yl)methyl)-2,3,4,5-tetrahydro-1H-benzo[d]azepine-7-carboxamide], the IC50 on human H3 receptor [1] came to 12 nM; on human H3 receptor [2], 19 nM.

Regarding `Cn1ccc(CCC(=O)c2ccc3c(c2)CCN(C2CCC2)CC3)n1` [Example 134, 1-(3-cyclobutyl-2,3,4,5-tetrahydro-1H-benzo[d]azepin-7-yl)-3-(1-methyl-1H-pyrazol-3-yl)propan-1-one], the IC50 at human H3 receptor [1] amounted to 13 nM; at human H3 receptor [2], 1 nM.

In the case of `OC(Cc1ccc2c(c1)CCN(C1CCC1)CC2)c1ccccn1` (stereo not drawn) [Example 143, 2-(3-cyclobutyl-2,3,4,5-tetrahydro-1H-benzo[d]azepin-7-yl)-1-(pyridin-2-yl)ethanol], the IC50 on human H3 receptor [1] is 24 nM; on human H3 receptor [2], 7 nM.

`CC(=O)N1CCCC(CNC(=O)c2ccc3c(c2)CCN(C2CCC2)CC3)C1` (stereo not drawn) [Example 164, N-((1-acetylpiperidin-3-yl)methyl)-3-cyclobutyl-2,3,4,5-tetrahydro-1H-benzo[d]azepine-7-carboxamide]: the IC50 at human H3 receptor [1] came to 10 nM; at human H3 receptor [2], 5 nM.

For the compound `NC(=O)c1ccc2c(c1)CCN(C1CCC1)CC2` [Example 167, 3-cyclobutyl-2,3,4,5-tetrahydro-1H-benzo[d]azepine-7-carboxamide], the results for the concentration for half-maximal inhibition (IC50) at human H3 receptor [1] and at human H3 receptor [2] were 22 nM and 71 nM, respectively.

As for `O=C(NCC1CCS(=O)(=O)C1)c1ccc2c(c1)CCN(C1CCC1)CC2` (stereo not drawn) [Example 171, 3-Cyclobutyl-2,3,4,5-tetrahydro-1H-benzo[d]azepine-7-carboxylic acid (1,1-dioxo-tetrahydro-1lambda*6*-thiophen-3-ylmethyl)-amide], the half-maximal inhibitory concentration (IC50) on human H3 receptor [1] was found to be 14 nM; on human H3 receptor [2] it was 4 nM.

With `O=C(NCc1ccc2c(c1)CCN(C1CCC1)CC2)c1cnccn1` [Example 181, N-((3-cyclobutyl-2,3,4,5-tetrahydro-1H-benzo[d]azepin-7-yl)methyl)pyrazine-2-carboxamide], the half-inhibitory concentration (IC50) at human H3 receptor [1] is 21 nM; at human H3 receptor [2], 4 nM.

In the case of `O=C(NCc1ccc2c(c1)CCN(C1CCC1)CC2)c1cncc(F)c1` [Example 191, N-((3-cyclobutyl-2,3,4,5-tetrahydro-1H-benzo[d]azepin-7-yl)methyl)-5-fluoronicotinamide], the IC50 on human H3 receptor [1] was 13 nM; at human H3 receptor [2] it was 2 nM.

On to `O=C(NCc1ccc2c(c1)CCN(C1CCC1)CC2)N1CCCC1` [Example 194, N-((3-cyclobutyl-2,3,4,5-tetrahydro-1H-benzo[d]azepin-7-yl)methyl)pyrrolidine-1-carboxamide], for which the IC50 on human H3 receptor [1] stood at 26 nM; at human H3 receptor [2] it was 7 nM.

For the compound `Cc1ncc(C(=O)NCc2ccc3c(c2)CCN(C2CCC2)CC3)cn1` [Example 211, N-((3-cyclobutyl-2,3,4,5-tetrahydro-1H-benzo[d]azepin-7-yl)methyl)-2-methylpyrimidine-5-carboxamide], the half-maximal inhibitory concentration (IC50) on human H3 receptor [1] turned out to be 6 nM; on human H3 receptor [2] it was 9 nM.

For the compound `CC(C)(O)CC(=O)NCc1ccc2c(c1)CCN(C1CCC1)CC2` [Example 216, N-((3-cyclobutyl-2,3,4,5-tetrahydro-1H-benzo[d]azepin-7-yl)methyl)-3-hydroxy-3-methylbutanamide], the half-inhibitory concentration (IC50) is 41 nM at human H3 receptor [1] and 20 nM at human H3 receptor [2].

For `Cn1nccc1NC(=O)Cc1ccc2c(c1)CCN(C1CCC1)CC2` [Example 221, 2-(3-cyclobutyl-2,3,4,5-tetrahydro-1H-benzo[d]azepin-7-yl)-N-(1-methyl-1H-pyrazol-5-yl)acetamide], the IC50 on human H3 receptor [1] is 11 nM; on human H3 receptor [2], 3 nM.

Turning to `O=C(Cc1ccc2c(c1)CCN(C1CCC1)CC2)Nc1cccnc1` [Example 224, 2-(3-cyclobutyl-2,3,4,5-tetrahydro-1H-benzo[d]azepin-7-yl)-N-(pyridin-3-yl)acetamide], the IC50 was found to be 2 nM at human H3 receptor [1] and 4 nM on human H3 receptor [2].

For the origin of these results see US20110124626A1, “BENZAZEPINE DERIVATIVES AND THEIR USE AS HISTAMINE H3 ANTAGONISTS” (TAKEDA PHARMACEUTICAL COMPANY LIMITED, priority 2008, published 2011).
